Values of other authors as cited in US20090048334A1, “Sodium ascorbate solubilisate” (priority 2004, published 2009).

Conditions: for content of the agent in an aqueous solution: over an extended period of time

Row | added ascorbic acid present (aqueous ascorbic acid solution, after 30 days) | content of the agent in an aqueous solution | Structure (SMILES)
1 | approximately 70% | – | O=C1O[C@H]([C@@H](O)CO)C(O)=C1O [ascorbic acid]
2 | – | remains constant | CCCCCCCCCCCCCCCC(=O)OC[C@H](O)[C@H]1OC(=O)C(O)=C1O [ascorbylpalmitate]
3 | – | remains constant | O=C1O[C@H]([C@@H](O)CO)C([O-])=C1OP(=O)([O-])[O-].[Na+].[Na+].[Na+] [sodium ascorbic phosphate]
